Key:
Test in all cases: relative viability (nuclei count vs DMSO), 5 days (fraction); higher = more cells survive
BMX-IN-1 + Trametinib = compound: C=CC(=O)Nc1cc(-n2c(=O)ccc3cnc4ccc(-c5ccc(NS(C)(=O)=O)cc5)cc4c32)ccc1C [BMX-IN-1] + CC(=O)Nc1cccc(-n2c(=O)n(C3CC3)c(=O)c3c(Nc4ccc(I)cc4F)n(C)c(=O)c(C)c32)c1 [Trametinib] (partner 0.02 µM)
Summary of the method: (§1)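 Lung cancer cell lines were seeded in 1536-well plates and dosed by pin tool the next day, with either a single drug or a fixed anchor-drug dose combined with five library-drug doses (not always all listed) spaced in √10 steps. Five days later, one step fixed the cells and stained their nuclei (final 0.05% Triton X-100, 1% formaldehyde, 1 ug/ml Hoechst), and nuclei were counted on 4× images. Relative viability is the nuclei count in treated wells divided by the count in vehicle wells, and each value is the median of duplicate plates.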

Ibrutinib + Decitabine = compound: C=CC(=O)N1CCC[C@@H](n2nc(-c3ccc(Oc4ccccc4)cc3)c3c(N)ncnc32)C1 [Ibrutinib] + Nc1ncn([C@H]2C[C@H](O)[C@@H](CO)O2)c(=O)n1 [Decitabine] (partner 2 µM)
Summary of the method: as §1

Ibrutinib + Linsitinib = compound: C=CC(=O)N1CCC[C@@H](n2nc(-c3ccc(Oc4ccccc4)cc3)c3c(N)ncnc32)C1 [Ibrutinib] + C[C@]1(O)C[C@@H](c2nc(-c3ccc4ccc(-c5ccccc5)nc4c3)c3c(N)nccn32)C1 [Linsitinib] (partner 1 µM)
Summary of the method: as §1

PAC-1 + Lapatinib = compound: C=CCc1cccc(/C=N/NC(=O)CN2CCN(Cc3ccccc3)CC2)c1O [PAC-1] + CS(=O)(=O)CCNCc1ccc(-c2ccc3ncnc(Nc4ccc(OCc5cccc(F)c5)c(Cl)c4)c3c2)o1 [Lapatinib] (partner 2 µM)
Summary of the method: as §1

Cell Line	relative viability (BMX-IN-1 + Trametinib; first compound 0.02 µM)	relative viability (BMX-IN-1 + Trametinib; first compound 0.2 µM)	relative viability (BMX-IN-1 + Trametinib; first compound 0.6325 µM)	relative viability (BMX-IN-1 + Trametinib; first compound 2 µM)	relative viability (Ibrutinib + Decitabine; first compound 0.01581 µM)	relative viability (Ibrutinib + Decitabine; first compound 0.05 µM)	relative viability (Ibrutinib + Decitabine; first compound 0.1581 µM)	relative viability (Ibrutinib + Decitabine; first compound 0.5 µM)	relative viability (Ibrutinib + Linsitinib; first compound 0.005 µM)	relative viability (Ibrutinib + Linsitinib; first compound 0.01581 µM)	relative viability (Ibrutinib + Linsitinib; first compound 0.05 µM)	relative viability (Ibrutinib + Linsitinib; first compound 0.1581 µM)	relative viability (Ibrutinib + Linsitinib; first compound 0.5 µM)	relative viability (PAC-1 + Lapatinib; first compound 0.02 µM)	relative viability (PAC-1 + Lapatinib; first compound 0.06325 µM)	relative viability (PAC-1 + Lapatinib; first compound 0.2 µM)	relative viability (PAC-1 + Lapatinib; first compound 2 µM)	relative viability (Ibrutinib + Decitabine; first compound 0.005 µM)
UMC-11	0.831	0.727	0.763	0.738	0.588	0.452	0.596	0.789	0.903	0.987	1.17	1.14	0.938	0.994	0.987	0.978	1.07	
NCI-H2023	0.586	0.564	0.623	0.539	0.234	0.249	0.208	0.23	0.601	0.494	0.53	0.596	0.456	1.1	0.849	0.768	0.847	0.245
NCI-H23	0.38	0.423	0.318	0.361	0.343	0.339	0.298	0.339	0.396	0.508	0.545	0.568	0.518	1.13	1.17	0.868	1.34	0.313
LCLC-97TM1	0.213	0.27	0.204	0.176	0.226	0.236	0.205	0.208	0.179		0.175	0.2	0.169		0.796	0.796	0.954	0.251
NCI-H661	0.634	0.597	0.642	0.535	0.489	0.428	0.471	0.381	0.477	0.48	0.543	0.546	0.355	0.313	0.541	0.552	0.445	0.498
NCI-H1944	0.395	0.416	0.419	0.392	0.363	0.413	0.433	0.372	1.05	1.01	1.23	1.05	0.568	0.754	0.798	0.768	0.867	0.426
NCI-H1915	0.326	0.302	0.519	0.317	0.272	0.275	0.272	0.255		1.03	1.12	1.13	1.1	0.971	0.995	0.917	0.92	0.269
BEN	1.15	0.909	0.96	1.03	0.817	0.687	0.521	0.646	0.766	0.885	0.853	0.851	0.883	0.629	0.604	0.671	0.75	0.454
H3255	0.725	0.624	0.599	0.672	0.532		0.636	0.261	0.925	0.772	0.685	1.06	0.227	0.268	0.256	0.246	0.269	0.575
NCI-H1395	1.19	1.12	0.958	0.966	0.688	0.811	0.697	0.75	1.16	0.968	0.995	1.45	1.13	1.12	1	0.881	1.01	0.777
NCI-H1437	0.677	0.489	0.605	0.614	0.559	0.507	0.609	0.53	1.01	0.926	0.989	1.09	0.993	0.758	0.828	0.751	0.679	0.59
NCI-H1755	0.703	0.81	0.853	0.695	0.716	0.704	0.713	0.7	1.02	0.92	1.06	1.02	0.903	0.987	1.03	1.02	1.05	0.739
SK-LU-1	0.381	0.522	0.481	0.403	0.664	0.626	0.571	0.617	0.776	1.02	1.21	1.21	1.04	0.601	0.942	0.67	0.867	0.592
HOP-62	0.44	0.379	0.366	0.341		0.22	0.249	0.231	0.761	0.771	0.979	1.17	1.07	0.876	0.987	1.03	1.22	0.242
SW 1573	0.657	0.719	0.624	0.507	0.459	0.482	0.412	0.683	0.732	0.761	0.925	0.814	0.809	1.05	1.16	1	1.09	0.364
PC-14	0.814	1.01	0.927	0.793	0.202	0.217	0.168	0.22	1	0.949	0.976	0.902	0.462	0.324	0.315	0.275	0.321	0.241
EMC-BAC-2	0.827	0.906	0.96	1.04	0.962			0.994	0.777	0.703	0.637	0.795	0.586	0.841	0.865	0.899	0.974	0.91
NCI-H520	0.892	0.721	0.741	0.733	0.512	0.497	0.606	0.498	0.928	0.76	0.971	1.03	0.883	0.733	0.976	0.637	0.779	0.447
A-427	0.691	0.727	0.79	0.722	0.574	0.576		0.549	0.986	1.09	1.15	1.1	1.12	1.06	1.03	1.08	0.71	0.59
LC-2-ad	1.02	0.945	0.929	0.94	0.776	0.774	0.814	0.765	0.829	0.778	0.89	0.869	0.745	0.983	0.957	0.984	0.865	0.842
NCI-H727	0.419	0.429	0.387	0.4	1.04	0.806	0.506	0.804	0.285	0.288	0.319	0.203	0.31	0.717	0.674	0.801	0.884	0.617
COR-L23	0.71	0.695	0.623	0.662	0.433	0.473	0.461	0.525	1.16	0.867	0.973	0.986		1.06	0.963	0.833	0.928	0.428
NCI-H3122	0.228	0.253	0.238	0.272	0.381	0.471	0.424	0.431		1.03	1.03	0.992	1.07	1.01	1.03	0.983	0.953	0.52
NCI-H322M	0.501	0.504	0.532	0.443	0.637	0.664	0.634	0.505	0.782	0.813	0.784	0.82	0.516	0.526	0.581	0.668	0.576	0.662
HCC-44	1.11	1.08	1.14	1.03	0.96	1	0.976	0.988	0.682	0.591	0.673	0.732	0.645	1.06	1.04	0.962	1.03	1
NCI-H2347	0.295	0.291	0.322	0.292	0.609	0.658	0.575	0.535		0.979	1.04	0.816	1.05	0.947	0.885	0.859	0.892	0.65
HCC-827	0.558	0.537	0.475	0.518	0.345	0.262	0.287	0.195	1.01	0.947	1.01	0.854	0.32	0.193	0.194	0.186	0.198	0.275
LOU-NH91		0.814	0.849	0.784	0.745	0.762	0.807	0.648	0.834	0.733	0.739	0.892	0.492	0.723	0.82	0.749	0.782	0.786
NCI-H1651	0.866	0.908	0.879	0.893	0.693	0.56	0.465	0.53	0.99	0.765	0.901	0.991	0.927	0.757	0.8	0.725	0.855	0.426
NCI-H1792	0.645	0.485	0.44	0.391	0.584	0.558	0.591	0.441	0.553	0.44	0.506	0.608	0.53	0.978	0.91	0.923	0.934	
